Data: PubChem BioAssay (NCI)
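Here, GI50 denotes the concentration required for 50% inhibition of growth. TGI marks complete inhibition of growth.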

Columns and labels:
Test in all cases: NCI tumour cell line growth inhibition, 384-well format
NCI/ADR-RES ovarian = test system: NCI/ADR-RES ovarian
RPMI-8226 leukemia = test system: RPMI-8226 leukemia
UO-31 renal = test system: UO-31 renal
NCI-H322M lung = test system: NCI-H322M lung
BT-549 breast = test system: BT-549 breast
M14 melanoma = test system: M14 melanoma
UACC-62 melanoma = test system: UACC-62 melanoma
NCI-H522 lung = test system: NCI-H522 lung
PC-3 prostate = test system: PC-3 prostate
MDA-MB-435 melanoma = test system: MDA-MB-435 melanoma
CAKI-1 renal = test system: CAKI-1 renal
EKVX NSCLC = test system: EKVX NSCLC
HL-60(TB) leukemia = test system: HL-60(TB) leukemia
DU-145 prostate = test system: DU-145 prostate
MALME-3M melanoma = test system: MALME-3M melanoma
786-0 renal = test system: 786-0 renal
U251 glioblastoma = test system: U251 glioblastoma
OVCAR-5 ovarian = test system: OVCAR-5 ovarian
HT29 colon = test system: HT29 colon
TK-10 renal = test system: TK-10 renal
HOP-62 NSCLC = test system: HOP-62 NSCLC
A498 renal = test system: A498 renal
RXF 393 renal = test system: RXF 393 renal
OVCAR-3 ovarian = test system: OVCAR-3 ovarian
NCI-H23 lung = test system: NCI-H23 lung
K-562 leukemia = test system: K-562 leukemia
HCT-116 colon = test system: HCT-116 colon
HCT-15 colon = test system: HCT-15 colon
OVCAR-8 ovarian = test system: OVCAR-8 ovarian
UACC-257 melanoma = test system: UACC-257 melanoma
A549 NSCLC = test system: A549 NSCLC
SW-620 colon = test system: SW-620 colon
KM12 colon = test system: KM12 colon
HOP-92 NSCLC = test system: HOP-92 NSCLC
LOX IMVI melanoma = test system: LOX IMVI melanoma
OVCAR-4 ovarian = test system: OVCAR-4 ovarian
SN12C renal = test system: SN12C renal
IGROV1 ovarian = test system: IGROV1 ovarian
MCF7 breast = test system: MCF7 breast
SK-MEL-28 melanoma = test system: SK-MEL-28 melanoma
SK-OV-3 ovarian = test system: SK-OV-3 ovarian
T-47D breast = test system: T-47D breast
NCI-H226 lung = test system: NCI-H226 lung
MOLT-4 leukemia = test system: MOLT-4 leukemia
HS 578T breast = test system: HS 578T breast
ACHN renal = test system: ACHN renal
MDA-MB-231 breast = test system: MDA-MB-231 breast
MDA-MB-468 breast = test system: MDA-MB-468 breast
SK-MEL-2 melanoma = test system: SK-MEL-2 melanoma

## CC/C(=C(\c1ccccc1)c1ccc(OCCN(C)C)cc1)c1ccccc1
NCI/ADR-RES ovarian
  GI50: 12 µM
  TGI: 24.6 µM
RPMI-8226 leukemia
  GI50: 1.94 µM
  TGI: 3.66 µM
UO-31 renal
  GI50: 14.9 µM
  TGI: 28.4 µM
NCI-H322M lung
  GI50: 6.11 µM
  TGI: 18.4 µM
BT-549 breast
  GI50: 10.7 µM
  TGI: 22.8 µM
M14 melanoma
  GI50: 1.89 µM
  TGI: 3.51 µM
UACC-62 melanoma
  GI50: 2.77 µM
  TGI: 7.86 µM
NCI-H522 lung
  GI50: 11.4 µM
  TGI: 23.7 µM
PC-3 prostate
  GI50: 4.18 µM
  TGI: 13.7 µM
MDA-MB-435 melanoma
  GI50: 7.19 µM
  TGI: 19.5 µM
CAKI-1 renal
  GI50: 8.23 µM
  TGI: 20.8 µM
EKVX NSCLC
  GI50: 14.7 µM
  TGI: 28.1 µM
HL-60(TB) leukemia
  GI50: 1.93 µM
  TGI: 3.39 µM
DU-145 prostate
  GI50: 12.8 µM
  TGI: 25.9 µM
MALME-3M melanoma
  GI50: 1.99 µM
  TGI: 3.66 µM
786-0 renal
  GI50: 4.92 µM
  TGI: 15.7 µM
U251 glioblastoma
  GI50: 5.21 µM
  TGI: 16.2 µM
OVCAR-5 ovarian
  GI50: 8.67 µM
  TGI: 21 µM
HT29 colon
  GI50: 2.2 µM
  TGI: 4.16 µM
TK-10 renal
  GI50: 12.7 µM
  TGI: 25.5 µM
HOP-62 NSCLC
  GI50: 12.9 µM
  TGI: 25.7 µM
A498 renal
  GI50: 4.05 µM
  TGI: 15 µM
RXF 393 renal
  GI50: 3.43 µM
  TGI: 8.75 µM
OVCAR-3 ovarian
  GI50: 9.12 µM
  TGI: 21.3 µM
NCI-H23 lung
  GI50: 10.6 µM
  TGI: 22.6 µM
K-562 leukemia
  GI50: 2.51 µM
  TGI: 5.33 µM
HCT-116 colon
  GI50: 5.26 µM
  TGI: 17.5 µM
HCT-15 colon
  GI50: 2.05 µM
  TGI: 3.96 µM
OVCAR-8 ovarian
  GI50: 11.5 µM
  TGI: 24 µM
UACC-257 melanoma
  GI50: 1.97 µM
  TGI: 3.56 µM
A549 NSCLC
  GI50: 10.9 µM
  TGI: 23.7 µM
SW-620 colon
  GI50: 9.21 µM
  TGI: 21.6 µM
KM12 colon
  GI50: 3.27 µM
  TGI: 10.7 µM
HOP-92 NSCLC
  GI50: 14.7 µM
  TGI: 28.1 µM
LOX IMVI melanoma
  GI50: 4.94 µM
  TGI: 17 µM
OVCAR-4 ovarian
  GI50: 12.9 µM
  TGI: 25.7 µM
SN12C renal
  GI50: 13.6 µM
  TGI: 26.7 µM
IGROV1 ovarian
  GI50: 14.2 µM
  TGI: 27.4 µM
MCF7 breast
  GI50: 1.65 µM
  TGI: 7.98 µM
SK-MEL-28 melanoma
  GI50: 5.35 µM
  TGI: 16.8 µM
SK-OV-3 ovarian
  GI50: 10.6 µM
  TGI: 22.8 µM
T-47D breast
  GI50: 5.64 µM
  TGI: 19.7 µM
NCI-H226 lung
  GI50: 7.96 µM
  TGI: 20.2 µM
MOLT-4 leukemia
  GI50: 2.56 µM
  TGI: 6 µM
HS 578T breast
  GI50: 14 µM
  TGI: 27.2 µM
ACHN renal
  GI50: 16.4 µM
  TGI: 30.3 µM
MDA-MB-231 breast
  GI50: 11.5 µM
  TGI: 24 µM
MDA-MB-468 breast
  GI50: 4.92 µM
  TGI: 16 µM
SK-MEL-2 melanoma
  GI50: 4.1 µM
  TGI: 15.8 µM
